Measured values taken from article PMC6272970 (Molecules, 2016).
Converted amounts (≈) assume the structure as drawn.

Key:
[1] = set-up: method as in PMID 25030991; conditions: rat plasma; 2.5 mg/kg sublingual vein administration; cited from earlier work
[2] = Solubility trials of rutin in water, ethanol, methanol and NADES, quantified by HPLC-DAD; assay type: physicochemical; conditions: 22 °C
Description: Samples were stirred on a magnetic stirrer (Stuart, Bibby Scientific Ltd., Stone, Staffordshire, UK) for one hour at room temperature and centrifuged for 21 min at 13,000 rpm with Eppendorf 5415 R centrifuge The time of one-hour stirring was chosen because it was sufficient for all the prepared mixtures to reach maximum concentration of rutin. […] Calibration curve was obtained injecting standard solution at different concentrations namely (50, 25, 10, 5 and 1 μg/mL) Calibration curve was as follows y = 17.832 x + 9.7822 (R^2 was 0.9998). Limit of Quantification was 1 μg/mL. For HPLC-DAD a series 1260 HPLC instrument (Agilent, Cernusco Sul Naviglio (MI), Italy) equipped with a quaternary pump, a diode-array detector, an auto sampler and a column oven compartment was used. Analyses were performed on Eclipse XDB C8 column (5 μm, 4.6 mm × 150 mm, Agilent). The mobile phase was (A) water-formic acid (99.9:0.1, v/v) and (B) acetonitrile. A gradient program was used as follows: [0 → 10[…] (60:40) 10 → 11[…] (0:100) 11 → 12[…] (0:100) 12 → 13[…] (90:10) 13 → 14[…] (90:10)]. The mobile phase flow rate was 1.2 mL/min and the injection volume was 10 μL. The chromatogram was recorded at 350 nm and spectral data for all peaks were obtained in the range of 190-400 nm. The retention time of rutin in the analysis conditions was 3.8 min.

[3] = set-up: method as in PMID 11151743; conditions: healthy volunteers, various dose levels; quercetin glucuronides and/or sulfates measured; cited from earlier work

For `C[C@@H]1O[C@@H](OC[C@H]2O[C@@H](Oc3c(-c4ccc(O)c(O)c4)oc4cc(O)cc(O)c4c3=O)[C@H](O)[C@@H](O)[C@@H]2O)[C@H](O)[C@H](O)[C@H]1O` [rutin], the maximum concentration [1] is listed as 1659 ng/mL, the “time of maximum concentration” value [1] is listed as 5 min and the solubility at 1 h ([2]; Citric Acid–Fructose 1:1 (NADES mixture 7), organic solvent or mixture, thermodynamic from solid, solvent mixture 7 Citric Acid–Fructose 1:1) is listed as 205 ± 5.1 µg/mL (≈ 336 µM). It also gave a solubility at 1 h ([2]; Glucose–Citric Acid–Water 1:1:1 (NADES mixture 9), solvent mixture 9 Glucose–Citric Acid–Water 1:1:1) of 175 ± 3.7 µg/mL (≈ 287 µM), a solubility at 1 h ([2]; Glucose–Fructose–Sorbitol 1:1:1 (NADES mixture 6), organic solvent or mixture, thermodynamic from solid, solvent mixture 6 Glucose–Fructose–Sorbitol 1:1:1) of 90.8 ± 1.9 µg/mL (≈ 149 µM) and a solubility at 1 h ([2]; Glucose–Fructose–Water 1:1:1 (NADES mixture 5), organic solvent or mixture, thermodynamic from solid, solvent mixture 5 Glucose–Fructose–Water 1:1:1) of 81.9 ± 2.5 µg/mL (≈ 134 µM). It also gave a solubility at 1 h ([2]; Proline–Glutamic Acid 1:1 (NADES mixture 10), solvent mixture 10 Proline–Glutamic Acid 1:1) of 2260 ± 63.4 µg/mL (≈ 3700 µM), a solubility at 1 h ([2]; Proline–Glutamic Acid 2:1 (NADES mixture 11), organic solvent or mixture, thermodynamic from solid, solvent mixture 11 Proline–Glutamic Acid 2:1) of 2940 ± 118 µg/mL (≈ 4810 µM) and a solubility at 1 h ([2]; Tartaric Acid–Fructose 1:1 (NADES mixture 8), organic solvent or mixture, thermodynamic from solid, solvent mixture 8 Tartaric Acid–Fructose 1:1) of 504 ± 16.4 µg/mL (≈ 826 µM). For the same compound, the solubility at 1 h ([2]; ethanol, solvent Ethanol, mean ± SD of 3) was 2370 ± 93.2 µg/mL (≈ 3880 µM), the solubility at 1 h ([2]; methanol, solvent Methanol, mean ± SD of 3) was 2050 ± 89.7 µg/mL (≈ 3360 µM) and the solubility at 1 h ([2]; natural deep eutectic solvent (NADES), organic solvent or mixture, thermodynamic from solid, solvent mixture 1 Urea–Glucose–Citric Acid 1:1:1) was 379 ± 8.5 µg/mL (≈ 620 µM). For the same compound, the solubility at 1 h ([2]; natural deep eutectic solvent (NADES), organic solvent or mixture, thermodynamic from solid, solvent mixture 2 Urea–Glucose–Fructose 1:1:1) was 961 ± 30.6 µg/mL (≈ 1570 µM), the solubility at 1 h ([2]; natural deep eutectic solvent (NADES), organic solvent or mixture, thermodynamic from solid, solvent mixture 3 Urea–Tartaric Acid 1:1) was 680 ± 19 µg/mL (≈ 1110 µM) and the solubility at 1 h ([2]; natural deep eutectic solvent (NADES), organic solvent or mixture, thermodynamic from solid, solvent mixture 4 Urea–Choline chloride 1:1) was 1880 ± 48.1 µg/mL (≈ 3080 µM). For the same compound, the solubility at 1 h ([2]; natural deep eutectic solvent (NADES), organic solvent or mixture, thermodynamic from solid, solvent mixture 12 Proline–Oxalic Acid 1:1) was 749 ± 22.5 µg/mL (≈ 1230 µM), the solubility at 1 h ([2]; natural deep eutectic solvent (NADES), organic solvent or mixture, thermodynamic from solid, solvent mixture 14 Ornitine–Tartaric Acid 1:1) was 210 ± 5.7 µg/mL (≈ 343 µM) and the solubility at 1 h ([2]; natural deep eutectic solvent (NADES), organic solvent or mixture, thermodynamic from solid, solvent mixture 15 Arginine–Tartaric Acid 1:1) was 363 ± 11.2 µg/mL (≈ 594 µM). It also gave a solubility at 1 h ([2]; natural deep eutectic solvent (NADES), organic solvent or mixture, thermodynamic from solid, solvent mixture 16 Citrulline–Tartaric Acid 1.1) of 370 ± 13.1 µg/mL (≈ 607 µM), a solubility at 1 h ([2]; natural deep eutectic solvent (NADES), organic solvent or mixture, thermodynamic from solid, solvent mixture 17 Arginine–Oxalic Acid 1:1) of 414 ± 13.6 µg/mL (≈ 679 µM) and a solubility at 1 h ([2]; natural deep eutectic solvent (NADES), organic solvent or mixture, thermodynamic from solid, solvent mixture 18 Proline–Malic Acid 1:1) of 900 ± 31.1 µg/mL (≈ 1470 µM). For the same compound, the solubility at 1 h ([2]; natural deep eutectic solvent (NADES), organic solvent or mixture, thermodynamic from solid, solvent mixture 19 Arginin–Malic Acid 1:1) was 457 ± 17.8 µg/mL (≈ 749 µM), the solubility at 1 h ([2]; natural deep eutectic solvent (NADES), organic solvent or mixture, thermodynamic from solid, solvent mixture 20 Ornitine–Malic Acid 1:1) was 408 ± 14.8 µg/mL (≈ 668 µM) and the solubility at 1 h ([2]; natural deep eutectic solvent (NADES), organic solvent or mixture, thermodynamic from solid, solvent mixture 21 Citrulline–Malic Acid 1:1) was 454 ± 18.5 µg/mL (≈ 744 µM). It also gave a solubility at 1 h ([2]; natural deep eutectic solvent (NADES), organic solvent or mixture, thermodynamic from solid, solvent mixture 22 Proline–Citric Acid 1:1) of 672 ± 26.2 µg/mL (≈ 1100 µM), a solubility at 1 h ([2]; natural deep eutectic solvent (NADES), organic solvent or mixture, thermodynamic from solid, solvent mixture 23 Arginine–Citric Acid 1:1) of 414 ± 13.3 µg/mL (≈ 679 µM) and a solubility at 1 h ([2]; natural deep eutectic solvent (NADES), organic solvent or mixture, thermodynamic from solid, solvent mixture 24 Ornitine–Citric Acid1:1) of 425 ± 17.2 µg/mL (≈ 696 µM). It also gave a solubility at 1 h ([2]; natural deep eutectic solvent (NADES), organic solvent or mixture, thermodynamic from solid, solvent mixture 25 Citrulline–Citric Acid 1:1) of 460 ± 14.4 µg/mL (≈ 753 µM), a solubility at 1 h ([2]; natural deep eutectic solvent (NADES), organic solvent or mixture, thermodynamic from solid, solvent mixture 26 Proline–Glucose1:1) of 879 ± 31.3 µg/mL (≈ 1440 µM) and a solubility at 1 h ([2]; natural deep eutectic solvent (NADES), organic solvent or mixture, thermodynamic from solid, solvent mixture 27 Proline–Fructose 1:1) of 1560 ± 43.8 µg/mL (≈ 2560 µM). It also gave a solubility at 1 h ([2]; natural deep eutectic solvent (NADES), organic solvent or mixture, thermodynamic from solid, solvent mixture 28 Proline–Choline Chloride 1:2) of 2640 ± 101 µg/mL (≈ 4330 µM), a solubility at 1 h ([2]; natural deep eutectic solvent (NADES), organic solvent or mixture, thermodynamic from solid, solvent mixture 29 Proline–Choline Chloride 1:3) of 2800 ± 103 µg/mL (≈ 4580 µM) and a solubility at 1 h ([2]; natural deep eutectic solvent (NADES), organic solvent or mixture, thermodynamic from solid, solvent mixture 30 Choline Chloride–Malic Acid 1:1) of 702 ± 22.3 µg/mL (≈ 1150 µM). For the same compound, the solubility at 1 h ([2]; water, solvent Water, mean ± SD of 3) was 120 ± 4.9 µg/mL (≈ 197 µM) and the “rutin in plasma after oral dosing” value [3] was “no rutin was detectable”.
